Format in all cases: in vivo
Experiment [1] has as its system ticks (Haemaphysalis longicornis). Briefly: Pesticidal activity on ticks in filter paper test. As to conditions: 48 h, 100 mg/m^2, non-blood-fed young ticks, 2 days later. The protocol:
Each (5 mg) of the present hydrazide compounds (1), (3) to (5), (8), (10) and (13) was dissolved in acetone (10 mL), and this acetone solution (1 mL) was uniformly applied onto one side of a filter paper (TOYO No. 2; 5×10 cm; the surface area of the filter paper was 50 cm^2, and thus the amount of the present hydrazide compound applied was 100 mg/m^2). After drying, said filter paper was folded, and the both sides of the paper were clipped to form a bag. Into this bag, test ticks (Haemaphysalis longicornis, non-blood-fed young ticks, 10 ticks/group) were added, and the opening was clipped to seal the bag. Two (2) days later, the number of dead ticks was examined and the mortality was calculated by the following formula:
Mortality(%)=100×(number of dead ticks/number of ticks tested)

The test system of experiment [2] is cat fleas (Ctenocephalides felis). Description: Dropping application against cat-infested cat fleas. As to the method: The previous day before dropping application, 50 test fleas (cat flea adults) were deposited on a cat. Before the dropping application, infested fleas were counted.
Each (0.375 g or 1.5 g) of the present hydrazide compounds (5) and (8) and Comparative compound (52) was dissolved in diethylene glycol monoethyl ether (6.0 g) to prepare a test solution. Said test solution was directly dropped on the skin of the neck and back of the cat while pushing aside fur thereon on at a rate of 0.1 ml per 1 kg of the cat's body weight (dose amount: 5 or 20 mg/kg). This is referred to as a test group. On the other hand, diethylene glycol monoethyl ether alone was applied dropwise to a placebo group.
Two (2) days after the application, the number of living fleas, which were infesting the cats, was examined. When the examination was completed, all infested fleas were removed from the cats.
Fourteen (14) days and 28 days later, 50 test fleas were re-deposited on each cat. Two (2) days after the re-deposit, the number of living fleas, which were infesting the cats, was examined. When the examination was completed, all infested fleas were removed from the cats. The infestation rate and control rate were calculated by the following formulae: […]
(§1) (i) Method of calculating infestation rate and control rate at the initial stage (2 days) after the application:
Infestation rate(%) at X days after application=(number of living fleas at X days/number of living fleas before application)×100
(§2) Control rate(%) at X days after application=(infestation rate of test group before application−infestation rate of test group at X days)/infestation rate of test group before application×100
(§3) (ii) Method of calculating infestation rate and control rate at 16 days and 30 days after the application:
Infestation rate(%) at X days after application−(number of living fleas at X days/number of fleas deposited)×100
(§4) Control rate(%) at X days after the application (infestation rate of placebo group at X days−infestation rate of test group at X days)/infestation rate of placebo group at X days×100
(§5) In addition, if an infestation rate of a test group is higher than a placebo group, then the control rate is deemed to be 0%.

Experiment [3] has as its system ticks (Haemaphysalis longicornis). Description: Oral administration against dog-infested ticks. As to conditions: oral gelatin capsules, 20 mg/kg. The protocol: Each of the present hydrazide compounds (5) and (8) and Comparative compound (52) was filled into gelatin capsules, and forcibly and orally administered to a dog in a dose amount of 20 mg per 1 kg of the dog's body weight. This is referred to as a test group. On the other hand, gelatin capsules alone were orally administered to a placebo group.
Forty two (42) days later, 100 test ticks were deposited on each dog. Two (2) days after the deposit, the number of living ticks, which were infesting the dogs, was examined. When the examination was completed, all infested ticks were removed from the dogs. The infestation rate and control rate were calculated by the following formulae: […]
Method of calculating infestation rate and control rate at 44 days after the administration:
Infestation rate(%) at X days after administration=(number of living ticks at X days/number of ticks deposited)×100
Control rate(%) at X days after administration (infestation rate of placebo group at X days−infestation rate of test group at X days)/infestation rate of placebo group at X days[…]
as §5

In experiment [4] the test system is cat fleas (Ctenocephalides felis). Description: Oral administration against cat-infested cat fleas. As to conditions: oral with cat food. The protocol:
The previous day before oral administration, 50 test fleas (cat flea adults) were deposited on a cat. Before the oral administration, infested fleas were counted.
Each of the present hydrazide compounds (5) and (8) was mixed with a cat food, and orally administered to a cat in a dose amount of 5 or 20 mg per 1 kg of the cat's body weight. This is referred to as a test group. On the other hand, the cat food alone was fed to a placebo group.
Two (2) days after the administration, the number of living fleas, which were infesting the cats, was examined. When the examination was completed, all infested fleas were removed from the cats.
Forty two (42) days later, 50 test fleas were re-deposited on each cat. Two (2) days after the re-deposit, the number of living fleas, which were infesting the cats, was examined. When the examination was completed, all infested fleas were removed from the cats. The infestation rate and control rate were calculated by the following formulae: […]
(i) Method of calculating infestation rate and control rate at the initial stage (2 days) after the administration:
Infestation rate(%) at X days after administration=(number of living fleas at X days/number of living fleas before administration)×100
Control rate(%) at X days after administration (infestation rate of test group before administration−infestation rate of test group at X days)/infestation rate of test group before administration×100
(ii) Method of calculating infestation rate and control rate at 44 days after the administration:
Infestation rate(%) at X days after administration=(number of living fleas at X days/number of fleas deposited)×100
Control rate(%) at X days after administration (infestation rate of placebo group at X days−infestation rate of test group at X days)/infestation rate of placebo group at X days×100
as §5

The test system is the same in experiment [5]. Briefly: Pesticidal activity on cat fleas in filter paper test. As to conditions: 48 h. As to the method:
Each (11.3 mg) of the present hydrazide compounds (5) and (8) was dissolved in acetone (5 mL), and this acetone solution ([…]) was uniformly applied onto one side of a filter paper (TOYO No. 2; diameter 3.8 cm; the surface area of the filter paper was 11.3 cm^2, and thus the amount of the present hydrazide compound applied was 400 mg/m^2). After drying, said filter paper was placed on the inside of the lid of a 100 mL vial container. Into the vial container, 20 cat flea adults were released and the lid was closed. The vial container was inverted to force the cat fleas to contact the filter paper. Two (2) days later, the number of dead fleas was examined and the mortality was calculated by the following formula:
Mortality(%)=100×(number of dead cat fleas/number of cat fleas tested)

The test system of experiment [6] is ticks (Haemaphysalis longicornis). Briefly: Dropping application against dog-infested ticks. As to conditions: dog (beagle), 20 mg/kg. The protocol: The previous day before dropping application, 100 test ticks (Haemaphysalis longicornis, young ticks) were deposited on a dog (beagle). Before the dropping application, infested ticks were counted.
Each (1.5 g) of the present hydrazide compounds (5) and (8) was dissolved in diethylene glycol monoethyl ether (6.0 g) to prepare a test solution. Said test solution was directly dropped on the skin of the neck and back of the dog while pushing aside fur thereon at a rate of 0.1 ml per kg of the dog's body weight (dose amount: 20 mg/kg). This is referred to as a test group. On the other hand, diethylene glycol monoethyl ether alone was applied dropwise to a placebo group.
Two (2) days after the application, the number of living ticks, which were infesting the dogs, was examined. When the examination was completed, all infested ticks were removed from the dogs.
Fourteen (14) days and 28 days later, 100 test ticks were re-deposited on each dog. Two (2) days after the re-deposit, the number of living ticks, which were infesting the dogs, was examined. When the examination was completed, all infested ticks were removed from the dogs. The infestation rate and control rate were calculated by the following formulae: […]
as §1
Infestation rate(%) at X days after application=(number of living ticks at X days/number of living ticks before application)×100
as §2, §3
Infestation rate(%) at X days after application=(number of living ticks at X days/number of ticks deposited)×100
as §4, §5

Usually mortality stands for the share of the test organisms that died.

In the case of `O=C(CC(F)(F)F)NNc1cccc(C2=NOC(c3cc(Cl)cc(Cl)c3)(C(F)(F)F)C2)c1` (centres unmarked) [(1), N′-{3-[5-(3,5-dichlorophenyl)-5-trifluoromethyl-4,5-dihydroisoxazol-3-yl]phenyl}-3,3,3-trifluoropropionohydrazide], the mortality at 100 mg/m2 in experiment [1] is no less than 90%.

In experiment [1], `O=C(CC(F)(F)F)NNc1cc(C2=NOC(c3cc(Cl)cc(Cl)c3)(C(F)(F)F)C2)ccc1F` (centres unmarked) [(3), N′-{5-[5-(3,5-dichlorophenyl)-5-trifluoromethyl-4,5-dihydroisoxazol-3-yl]-2-fluorophenyl}-3,3,3-trifluoropropionohydrazide] showed a mortality at 100 mg/m2 of no less than 90%.

In experiment [1], `O=C(CCCC(F)(F)F)NNc1cc(C2=NOC(c3cc(Cl)cc(Cl)c3)(C(F)(F)F)C2)ccc1Cl` (centres unmarked) [(10), N′-{2-chloro-5-[5-(3,5-dichlorophenyl)-5-trifluoromethyl-4,5-dihydroisoxazol-3-yl]phenyl}-5,5,5-trifluoropentanohydrazide] returned a mortality at 100 mg/m2 of no less than 90%.

In turn, `CCc1ccc(C2=NOC(c3cc(Cl)cc(Cl)c3)(C(F)(F)F)C2)cc1NNC(=O)CC(F)(F)F` (centres unmarked) [(13), N′-{5-[5-(3,5-dichlorophenyl)-5-trifluoromethyl-4,5-dihydroisoxazol-3-yl]-2-ethylphenyl}-3,3,3-propionohydrazide] registered a mortality at 100 mg/m2 in experiment [1] of no less than 90%.

As for `CC(=O)NNc1cc(C2=NOC(c3cc(Cl)cc(Cl)c3)(C(F)(F)F)C2)ccc1Cl` (centres unmarked) [Comparative compound (52), N′-{5-[5-(3,5-dichlorophenyl)-5-trifluoromethyl-4,5-dihydroisoxazol-3-yl]-2-chlorophenyl}acetohydrazide, reference compound], in experiment [2] (5 mg/kg), the “Flea control rates (%) at 2 days after the application” value was 25%, the “Flea control rates (%) at 16 days after the application” value (shortened to “Flea control rates (%) at 16 days”) is reported as 87% and the “Flea control rates (%) at 30 days after the application” value (shortened to “Flea control rates (%) at 30 days”) is reported as 58%. For the same compound, in experiment [3], the “Tick control rates (%) at 44 days after the administration” value turned out to be 74%.

For the compound `O=C(CCC(F)(F)F)NNc1cc(C2=NOC(c3cc(Cl)cc(Cl)c3)(C(F)(F)F)C2)ccc1Cl` (centres unmarked) [Compound (5), N′-{5-[5-(3,5-dichlorophenyl)-5-trifluoromethyl-4,5-dihydroisoxazol-3-yl]-2-chlorophenyl}-4,4,4-trifluorobutyrohydrazide], in experiment [4] (5 mg/kg), the “Flea control rates (%) at 2 days after the administration” value came out at 100% and the “Flea control rates (%) at 44 days after the administration” value is given as 81%. Further, in experiment [4] (20 mg/kg), the “Flea control rates (%) at 2 days after the administration” value turned out to be 100% and the “Flea control rates (%) at 44 days after the administration” value came to 100%. The compound further displayed a mortality at 400 mg/m2 in experiment [5] of no less than 90%. Further, in experiment [2] (5 mg/kg), the “Flea control rates (%) at 2 days after the application” value turned out to be 83%, the “Flea control rates (%) at 16 days” value came to 100% and the “Flea control rates (%) at 30 days” value was 97%. Further, in experiment [2] (20 mg/kg), the “Flea control rates (%) at 2 days after the application” value was 100%, the “Flea control rates (%) at 16 days” value is given as 100% and the “Flea control rates (%) at 30 days” value stood at 100%. In addition, the “Tick control rates (%) at 44 days after the administration” value in experiment [3] was 89%. Moreover, the “Tick control rates (%) at 2 days after the application” value in experiment [6] (2 days) amounted to 51%. Also, in experiment [6] (16 days), the “Tick control rates (%) at 16 days after the application” value stood at 100%. In experiment [6] (30 days), the “Tick control rates (%) at 30 days after the application” value is on record as 100%.

These data come from US20120029038A1, “ANIMAL ECTOPARASITE-CONTROLLING AGENT” (SUMITOMO CHEMICAL COMPANY, LIMITED, priority 2010, published 2012).
